Where a name gives a salt, the structure may show the parent alone.

For this assay, the target named is T1, IKZF2 (Homo sapiens, UniProt Q96SW2+Q9UKS7).
T1 construct: endogenous in cells; host or cells: MOLT4 (CRISPR/Cas9 HiBit knock-in at the IKZF2 locus)
Kind of assay: MOLT4 IKZF2 HiBit assay. The format is cell-based. Particulars: MOLT4 IKZF2 HiBit cells; for DC50: 6 hours incubation, 10-point dose response from 30 μM; for Dmax at 30 µM: MOLT-4, 6 hr (Dmax), read-out: % reduction of IKZF2 @ 30 μM (6 hr). The procedure: MOLT4 IKZF2 HiBit Assay Protocol:
This protocol used MOLT4 cells that were engineered using CRISPR/Cas9-mediated genomic insertion of HiBit, tagged to the N terminus of the IKZF2 coding sequence. Day 1. A 10-point dose response was created starting from 30 μM down to InM using a Tecan D300e. Next was added 8,000 cells/well of the MOLT4 IKZF2 HiBit cells to the compound plate. The compounds plate was incubated for 6 hours. Day 2. Nano-Glo HiBit Lytic Buffer/Nano-Glo HiBit Lytic substrate/LgBit Protein mix was added to each well and the compound plate was incubated for 15 minutes. Finally, luminescence signal was read using a BMG Labtech PHERAstar FSX. Data was normalized to DMSO and graphed using GraphPad Prism to determine the concentration points at which 50% of HiBiT-Helios degradation was achieved by each compound. The extent of degradation (range of luminescence) from the highest to lowest concentration points was calculated to determine Dmax.
Background: The HiBiT peptide binds its large partner to form an active luciferase.

T1 sequence (Q9UKS7 whole entry): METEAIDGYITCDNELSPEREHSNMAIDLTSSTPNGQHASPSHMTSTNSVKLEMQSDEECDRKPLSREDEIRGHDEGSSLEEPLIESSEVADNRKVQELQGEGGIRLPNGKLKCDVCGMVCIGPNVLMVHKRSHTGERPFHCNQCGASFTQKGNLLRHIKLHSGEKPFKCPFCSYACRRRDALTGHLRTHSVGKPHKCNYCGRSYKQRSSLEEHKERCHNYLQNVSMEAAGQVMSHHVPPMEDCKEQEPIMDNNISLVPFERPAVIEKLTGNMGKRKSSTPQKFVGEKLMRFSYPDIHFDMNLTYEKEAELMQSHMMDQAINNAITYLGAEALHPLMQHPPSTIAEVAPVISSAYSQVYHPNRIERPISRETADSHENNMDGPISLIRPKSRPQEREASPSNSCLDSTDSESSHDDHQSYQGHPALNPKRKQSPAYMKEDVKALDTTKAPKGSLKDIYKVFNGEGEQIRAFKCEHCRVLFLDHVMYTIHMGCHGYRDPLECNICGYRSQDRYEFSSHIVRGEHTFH
T1 sequence (Q96SW2 whole entry): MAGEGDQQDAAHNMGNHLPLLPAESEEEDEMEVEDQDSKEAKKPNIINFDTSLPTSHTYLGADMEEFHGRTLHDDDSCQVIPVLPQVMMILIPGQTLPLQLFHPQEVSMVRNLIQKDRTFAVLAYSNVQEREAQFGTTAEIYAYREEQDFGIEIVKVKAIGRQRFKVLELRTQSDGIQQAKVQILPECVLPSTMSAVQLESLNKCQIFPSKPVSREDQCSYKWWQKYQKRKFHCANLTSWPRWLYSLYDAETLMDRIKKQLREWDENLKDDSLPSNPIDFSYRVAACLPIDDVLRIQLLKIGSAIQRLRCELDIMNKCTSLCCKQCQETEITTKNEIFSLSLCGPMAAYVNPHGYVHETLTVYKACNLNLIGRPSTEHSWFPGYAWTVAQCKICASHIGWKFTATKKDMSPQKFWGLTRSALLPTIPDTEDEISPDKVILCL
T1 sequence (Q16531 whole entry partner): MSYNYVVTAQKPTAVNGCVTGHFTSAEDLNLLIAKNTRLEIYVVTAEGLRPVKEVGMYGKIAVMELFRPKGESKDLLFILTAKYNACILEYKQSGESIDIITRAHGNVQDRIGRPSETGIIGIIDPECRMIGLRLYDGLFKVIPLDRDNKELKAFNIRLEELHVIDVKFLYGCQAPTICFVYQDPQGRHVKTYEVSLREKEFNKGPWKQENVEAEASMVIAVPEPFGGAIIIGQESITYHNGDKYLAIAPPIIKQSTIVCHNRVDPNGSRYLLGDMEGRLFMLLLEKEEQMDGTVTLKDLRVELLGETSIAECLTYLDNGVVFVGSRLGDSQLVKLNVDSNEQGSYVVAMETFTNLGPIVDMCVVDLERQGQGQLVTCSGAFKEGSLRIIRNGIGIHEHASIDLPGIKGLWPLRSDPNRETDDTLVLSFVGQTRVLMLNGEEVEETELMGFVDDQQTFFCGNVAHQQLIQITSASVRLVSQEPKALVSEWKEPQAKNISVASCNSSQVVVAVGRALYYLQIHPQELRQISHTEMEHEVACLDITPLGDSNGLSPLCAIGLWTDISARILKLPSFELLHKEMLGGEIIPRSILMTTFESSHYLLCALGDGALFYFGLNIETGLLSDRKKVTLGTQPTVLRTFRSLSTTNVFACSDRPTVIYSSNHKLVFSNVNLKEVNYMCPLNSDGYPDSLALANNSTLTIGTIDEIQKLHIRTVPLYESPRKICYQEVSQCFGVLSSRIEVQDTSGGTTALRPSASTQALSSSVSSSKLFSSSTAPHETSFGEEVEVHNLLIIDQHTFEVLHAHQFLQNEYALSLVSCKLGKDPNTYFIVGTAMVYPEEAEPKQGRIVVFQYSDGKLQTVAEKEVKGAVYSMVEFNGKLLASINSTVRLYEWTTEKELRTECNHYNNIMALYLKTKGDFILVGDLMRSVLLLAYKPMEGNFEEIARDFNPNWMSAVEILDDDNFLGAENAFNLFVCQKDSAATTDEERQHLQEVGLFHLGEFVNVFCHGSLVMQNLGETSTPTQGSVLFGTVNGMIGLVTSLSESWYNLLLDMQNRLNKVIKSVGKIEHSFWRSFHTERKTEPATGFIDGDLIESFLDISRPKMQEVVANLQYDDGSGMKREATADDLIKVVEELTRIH

As for `O=C1CCC(N2C(=O)c3ccc(C4(O)CCN(C(CF)c5ccccc5)CC4)cc3C2=O)C(=O)N1` (centres unmarked) [Compound 34, 2-(2,6-dioxopiperidin-3-yl)-5-[1-(2-fluoro-1-phenylethyl)-4-hydroxypiperidin-4-yl]-2,3-dihydro-1H-isoindole-1,3-dione, formic acid salt], the DC50 came out at 31 nM and the Dmax at 30 µM was found to be 76%.
On the same counts, the results for `CC(c1ccccc1)N1CCC(O)(c2ccc3c(c2)C(=O)N(C2CCC(=O)NC2=O)C3=O)CC1` (centres unmarked) [Compound 35, 2-(2,6-dioxopiperidin-3-yl)-5-[4-hydroxy-1-(1-phenylethyl)piperidin-4-yl]-2,3-dihydro-1H-isoindole-1,3-dione, HCl salt] are 4 nM and 84%.
With `N#Cc1cccc(CN2CCC(O)(c3ccc4c(c3)C(=O)N(C3CCC(=O)NC3=O)C4=O)CC2)c1` (centres unmarked) [Compound 42, 3-({4-[2-(2,6-dioxopiperidin-3-yl)-1,3-dioxo-2,3-dihydro-1H-isoindol-5-yl]-4-hydroxypiperidin-1-yl}methyl)benzonitrile], the DC50 turned out to be 9 nM and the Dmax at 30 µM amounted to 80%.
The matching figures for `N#Cc1ccc(CN2CCC(O)(c3ccc4c(c3)C(=O)N(C3CCC(=O)NC3=O)C4=O)CC2)cc1` (centres unmarked) [Compound 57, 4-({4-[2-(2,6-dioxopiperidin-3-yl)-1,3-dioxo-2,3-dihydro-1H-isoindol-5-yl]-4-hydroxypiperidin-1-yl}methyl)benzonitrile]: 6 nM and 81%.
On the same counts, the results for `COCc1ccc(CN2CCC(O)(c3ccc4c(c3)C(=O)N(C3CCC(=O)NC3=O)C4=O)CC2)cc1` (centres unmarked) [Compound 61, 2-(2,6-dioxopiperidin-3-yl)-5-(4-hydroxy-1-{[4-(methoxymethyl)phenyl]methyl}piperidin-4-yl)-2,3-dihydro-1H-isoindole-1,3-dione, HCl salt] are 5 nM and 83%.
For `O=C1CCC(N2C(=O)c3ccc(C4(O)CCN(Cc5ccccn5)CC4)cc3C2=O)C(=O)N1` (centres unmarked) [Compound 68, 2-(2,6-dioxopiperidin-3-yl)-5-{4-hydroxy-1-[(pyridin-2-yl)methyl]piperidin-4-yl}-2,3-dihydro-1H-isoindole-1,3-dione, HCl salt], the DC50 stood at 21 nM and the Dmax at 30 µM amounted to 71%.
Consider `O=C1CCC(N2C(=O)c3ccc(C4(O)CCN(Cc5cccnc5)CC4)cc3C2=O)C(=O)N1` (centres unmarked) [Compound 69, 2-(2,6-dioxopiperidin-3-yl)-5-{4-hydroxy-1-[(pyridin-3-yl)methyl]piperidin-4-yl}-2,3-dihydro-1H-isoindole-1,3-dione, formic acid salt], for which the DC50 was determined as 39 nM and the Dmax at 30 µM was found to be 72%.
With `O=C1CCC(N2C(=O)c3ccc(C4(O)CCN(Cc5ccncc5)CC4)cc3C2=O)C(=O)N1` (centres unmarked) [Compound 70, 2-(2,6-dioxopiperidin-3-yl)-5-{4-hydroxy-1-[(pyridin-4-yl)methyl]piperidin-4-yl}-2,3-dihydro-1H-isoindole-1,3-dione, HCl salt], the DC50 was determined as 20 nM and the Dmax at 30 µM came out at 78%.
As for `COc1ccc(CN2CCC(O)(c3ccc4c(c3)C(=O)N(C3CCC(=O)NC3=O)C4=O)CC2)cn1` (centres unmarked) [Compound 72, 2-(2,6-dioxopiperidin-3-yl)-5-{4-hydroxy-1-[(6-methoxypyridin-3-yl)methyl]piperidin-4-yl}-2,3-dihydro-1H-isoindole-1,3-dione, HCl salt], the DC50 came out at 1 nM and the Dmax at 30 µM turned out to be 80%.
The matching figures for `COC[C@H]1CC[C@H](CN2CCC(O)(c3ccc4c(c3)C(=O)N(C3CCC(=O)NC3=O)C4=O)CC2)CC1` (stereo partly drawn) [Compound 84, trans-2-(2,6-dioxopiperidin-3-yl)-5-(4-hydroxy-1-((4-(methoxymethyl)cyclohexyl)methyl)piperidin-4-yl)isoindoline-1,3-dione]: 8.3 nM and 60%.
As for `COC[C@H]1CC[C@H](CN2CCC(c3ccc4c(c3)C(=O)N(C3CCC(=O)NC3=O)C4=O)CC2)CC1` (stereo partly drawn) [Compound 85, trans-2-(2,6-dioxopiperidin-3-yl)-5-(1-((4-(methoxymethyl)cyclohexyl)methyl)piperidin-4-yl)isoindoline-1,3-dione formic acid], the Dmax at 30 µM worked out at 25%.
As to `O=C1CCC(N2C(=O)c3ccc(C4(O)CCN(Cc5coc(-c6ccccc6)n5)CC4)cc3C2=O)C(=O)N1` (centres unmarked) [Compound 91, 2-(2,6-dioxopiperidin-3-yl)-5-{4-hydroxy-1-[(2-phenyl-1,3-oxazol-4-yl)methyl]piperidin-4-yl}-2,3-dihydro-1H-isoindole-1,3-dione, HCl salt], the DC50 came to 21 nM and the Dmax at 30 µM was 60%.
On the same counts, the results for `O=C1CCC(N2C(=O)c3ccc(C4(O)CCN(Cc5ccn(-c6ccccc6)n5)CC4)cc3C2=O)C(=O)N1` (centres unmarked) [Compound 94, 2-(2,6-dioxopiperidin-3-yl)-5-{4-hydroxy-1-[(1-phenyl-1H-pyrazol-3-yl)methyl]piperidin-4-yl}-2,3-dihydro-1H-isoindole-1,3-dione, HCl salt] are 8 nM and 79%.
Consider `O=C1CCC(N2C(=O)c3ccc(C4CCN(Cc5ccc6ncn(-c7ccccn7)c(=O)c6c5)CC4)cc3C2=O)C(=O)N1` (centres unmarked) [Compound 97, 2-(2,6-dioxopiperidin-3-yl)-5-(1-((4-oxo-3-(pyridin-2-yl)-3,4-dihydroquinazolin-6-yl)methyl)piperidin-4-yl)isoindoline-1,3-dione], for which the Dmax at 30 µM was 36%.
Consider `O=C1CCC(N2C(=O)c3ccc(C4(O)CCN(Cc5ccc6ncn(-c7ccccn7)c(=O)c6c5)CC4)cc3C2=O)C(=O)N1` (centres unmarked) [Compound 98, 2-(2,6-dioxopiperidin-3-yl)-5-(4-hydroxy-1-((4-oxo-3-(pyridin-2-yl)-3,4-dihydroquinazolin-6-yl)methyl)piperidin-4-yl)isoindoline-1,3-dione], for which the DC50 was found to be 1.5 nM and the Dmax at 30 µM came to 72%.
On the same counts, the results for `O=C1CCC(N2C(=O)c3ccc(C4(O)CCN(Cc5ccc6ncn(-c7cccnc7)c(=O)c6c5)CC4)cc3C2=O)C(=O)N1` (centres unmarked) [Compound 99, 2-(2,6-dioxopiperidin-3-yl)-5-(4-hydroxy-1-{[4-oxo-3-(pyridin-3-yl)-3,4-dihydroquinazolin-6-yl]methyl}piperidin-4-yl)-2,3-dihydro-1H-isoindole-1,3-dione, formic acid salt] are 1 nM and 89%.
Take `O=C1CCC(N2C(=O)c3ccc(C4(O)CCN(Cc5ccccc5)CC4)c(F)c3C2=O)C(=O)N1` (centres unmarked) [Compound 128, 5-(1-benzyl-4-hydroxypiperidin-4-yl)-2-(2,6-dioxopiperidin-3-yl)-4-fluoro-2,3-dihydro-1H-isoindole-1,3-dione, HCl salt]: the DC50 is 2 nM and the Dmax at 30 µM came out at 81%.
Regarding `Cn1ncc2ccc(CN3CCC(O)(c4ccc5c(c4)C(=O)N(C4CCC(=O)NC4=O)C5=O)CC3)cc21` (centres unmarked) [Compound 140, 2-(2,6-dioxopiperidin-3-yl)-5-{4-hydroxy-1-[(1-methyl-1H-indazol-6-yl)methyl]piperidin-4-yl}-2,3-dihydro-1H-isoindole-1,3-dione, formic acid salt], the DC50 was found to be 3 nM and the Dmax at 30 µM is 87%.
On to `Cn1ccc2cc(CN3CCC(O)(c4ccc5c(c4)C(=O)N(C4CCC(=O)NC4=O)C5=O)CC3)ccc21` (centres unmarked) [Compound 141, 2-(2,6-dioxopiperidin-3-yl)-5-{4-hydroxy-1-[(1-methyl-1H-indol-5-yl)methyl]piperidin-4-yl}-2,3-dihydro-1H-isoindole-1,3-dione, HCl salt], for which the DC50 worked out at 11 nM and the Dmax at 30 µM turned out to be 86%.
On the same counts, the results for `Cn1c(CN2CCC(O)(c3ccc4c(c3)C(=O)N(C3CCC(=O)NC3=O)C4=O)CC2)cc2ccccc21` (centres unmarked) [Compound 142, 2-(2,6-dioxopiperidin-3-yl)-5-{4-hydroxy-1-[(1-methyl-1H-indol-2-yl)methyl]piperidin-4-yl}-2,3-dihydro-1H-isoindole-1,3-dione, formic acid salt] are 13 nM and 82%.
For `CC(c1ccc(C(F)(F)F)cc1)N1CCC(O)(c2ccc3c(c2)C(=O)N(C2CCC(=O)NC2=O)C3=O)CC1` (centres unmarked) [Compound 143, 2-(2,6-dioxopiperidin-3-yl)-5-(4-hydroxy-1-{1-[4-(trifluoromethyl)phenyl]ethyl}piperidin-4-yl)-2,3-dihydro-1H-isoindole-1,3-dione, HCl salt], the DC50 turned out to be 6 nM and the Dmax at 30 µM was determined as 84%.
Take `O=C1CCC(N2C(=O)c3ccc(C4(O)CCN(Cc5ccc6[nH]ccc6c5)CC4)cc3C2=O)C(=O)N1` (centres unmarked) [Compound 144, 2-(2,6-dioxopiperidin-3-yl)-5-{4-hydroxy-1-[(1H-indol-5-yl)methyl]piperidin-4-yl}-2,3-dihydro-1H-isoindole-1,3-dione, formic acid salt]: the DC50 was found to be 16 nM and the Dmax at 30 µM turned out to be 88%.
As to `Cn1ncc2cc(CN3CCC(O)(c4ccc5c(c4)C(=O)N(C4CCC(=O)NC4=O)C5=O)CC3)ccc21` (centres unmarked) [Compound 145, 2-(2,6-dioxopiperidin-3-yl)-5-{4-hydroxy-1-[(1-methyl-1H-indazol-5-yl)methyl]piperidin-4-yl}-2,3-dihydro-1H-isoindole-1,3-dione, formic acid salt], the DC50 is 4 nM and the Dmax at 30 µM stood at 83%.

(Values after patent publication US20240239785A1, “SUBSTITUTED 2-(2,6-DIOXOPIPERIDIN-3-YL)-5-(1-PIPERIDIN-4-YL)ISOINDOLINE-1,3-DIONE DERIVATIVES AND USES THEREOF” (Neomorph, Inc., priority 2021, published 2024).)
